Values of other authors, collected in patent publication US20230065004A1, “METHOD FOR IMPROVING COLOUR RETENTION OF DYED KERATINOUS MATERIAL, ESPECIALLY HUMAN HAIR” (Henkel AG & Co. KGaA, priority 2019, published 2023).

settings: 25° C.

solubility in water	SMILES
more than 20 wt. %	CCN(Cc1cccc(S(=O)(=O)[O-])c1)c1ccc(C(=C2C=CC(=[N+](CC)Cc3cccc(S(=O)(=O)[O-])c3)C=C2)c2ccccc2S(=O)(=O)[O-])cc1.[Na+].[Na+] [Acid Blue 9]
about 2.5 g/L	Nc1cc(S(=O)(=O)[O-])cc2cc(S(=O)(=O)[O-])c(N=Nc3ccccc3)c(O)c12.[Na+].[Na+] [Acid Red 33, dinatrium salt of 5-amino-4-hydroxy-3-(phenylazo)-naphthalene-2,7-disulphonate]
highly soluble	O=C([O-])C1=NN(c2ccc(S(=O)(=O)[O-])cc2)C(=O)C1N=Nc1ccc(S(=O)(=O)[O-])cc1.[Na+].[Na+].[Na+] (stereo not shown) [Acid Yellow 23, trisodium salt of 4,5-dihydro-5-oxo-1-(4-sulfophenyl)-4-((4-sulfophenyl)azo)-1H-pyrazole-3-carboxylic acid]

SMILES	solubility in water
O=S(=O)([O-])c1ccc(N=Nc2c(O)ccc3ccccc23)cc1.[Na+] [Acid Orange 7, sodium salt of 4-[(2-hydroxy-1-naphthyl)azo]benzene sulphonate]	more than 7 g/L
